Patent US9963462B2 (priority 2015, dated 2018)

Columns and labels:
[1] = test system: BH4 levels in SK-N-BE (2) cells; test: SKN-N-BE (2) cellular assay, BH4 levels by LC-MS; assay type: cell-based; details: Homo sapiens, SKNBE2, read-out: SK-N-BE(2) IC50, SK-N-BE (2) cells, BH4 levels by LC-MS
[2] = target: SNAP-hSPR (sepiapterin reductase, SPR) (Homo sapiens, UniProt P35270); test: biochemical; assay type: binding; details: terbium labelled SNAP-hSPR / SSZ labelled SNAP-EGFP; read-out: hTR-FRET IC50
Chain of SNAP-hSPR (sepiapterin reductase, SPR) (P35270 whole entry): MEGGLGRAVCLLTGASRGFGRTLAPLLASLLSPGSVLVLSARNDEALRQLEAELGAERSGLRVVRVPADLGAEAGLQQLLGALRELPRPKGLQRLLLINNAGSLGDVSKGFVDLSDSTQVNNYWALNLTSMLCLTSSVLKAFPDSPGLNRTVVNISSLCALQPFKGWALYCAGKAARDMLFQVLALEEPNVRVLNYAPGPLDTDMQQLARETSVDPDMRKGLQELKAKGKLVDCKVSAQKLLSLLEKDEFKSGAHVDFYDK
Source text: TR-FRET Assay: A TR-FRET (homogeneous, time-resolved, fluorescence resonance energy transfer) assay was used to assess activity of compounds following standard assay conditions. […] Compounds were screened at different concentrations and IC50 values calculated.
Terbium labelled SNAP-hSPR and SSZ (sulfasalazine) labelled SNAP-EGFP were used as the protein pair in this assay. Compounds were screened at different concentrations, and 1050 and Kd values calculated.

| SMILES | IC50 [1] [nM] | IC50 [2] [nM] |
| --- | --- | --- |
| Cc1c(C(=O)N2CC3CC2C[C@@H]3C#N)cnn1-c1nn2cccc2c(=O)[nH]1 (stereo partly drawn) [Q-1001] | 1800 | – |
| Cc1c(C(=O)N2CCn3c(nnc3C3CC3)C2)cnn1-c1nn2cccc2c(=O)[nH]1 [Q-0868] | 10000 | – |
| Cc1c(C(=O)N2CCN(c3nccs3)CC2)cnn1-c1nn2cccc2c(=O)[nH]1 [Q-0907] | 400 | – |
| Cc1c(C(=O)N2CCN3C(=O)CC[C@@H]3C2)cnn1-c1nn2cccc2c(=O)[nH]1 [Q-0862] | 10000 | – |
| Cc1c(C(=O)N2CCC(N3CCC[C@H](F)C3)C2)cnn1-c1nn2cccc2c(=O)[nH]1 (stereo partly drawn) [Q-1026] | 1700 | – |
| Cc1c(C(=O)N2CCC(C(F)(F)F)CC2)cnn1-c1nn2cccc2c(=O)[nH]1 [Q-0533] | 69 | – |
| Cc1c(C(=O)N2[C@H](C)CN(C(=O)OC(C)(C)C)C[C@@H]2C)cnn1-c1nn2cccc2c(=O)[nH]1 [Q-0968] | 400 | – |
| Cc1c(C(=O)N2CCC(F)(F)C2)cnn1-c1nn2cccc2c(=O)[nH]1 [Q-1050] | 1400 | – |
| Cc1c(C(=O)N2CCN(C(C#N)C(C)C)CC2)cnn1-c1nn2cccc2c(=O)[nH]1 (stereo not drawn) [Q-0982] | 10000 | – |
| Cc1c(C(=O)N2CCC(C(F)(F)F)CC2)cnn1-c1nc2ncsc2c(=O)[nH]1 [Q-0433] | 58000 | – |
| Cc1c(C(=O)N2CCC(c3nc(-c4ccccc4)cs3)CC2)cnn1-c1nn2cccc2c(=O)[nH]1 [Q-0939] | 83 | – |
| Cc1c(C(=O)N2C3CCCC2CN(Cc2ccccc2)C3)cnn1-c1nn2cccc2c(=O)[nH]1 [Q-0989] | 900 | – |
| Cc1nc(-n2ncc(C(=O)N3c4ccccc4C[C@@H]3C)c2C)[nH]c(=O)c1C (single isomer, unassigned) [Q-0457] | – | 100 |
| CCn1ccc2c(=O)[nH]c(-n3ncc(C(=O)N4CCN(CC(F)(F)F)CC4)c3C)nc21 [Q-1292] | – | 5000 |
| Cc1cc(=O)[nH]c(-n2ncc(C(=O)O)c2C)n1 [Q-0290] | – | 2000 |
| Cc1c(C(=O)N2CCc3ccccc3C2)cnn1-c1nc2cc(Cl)sc2c(=O)[nH]1 [Q-0394] | – | 1500 |
| Cc1cc(=O)n(C)c(-n2ncc(C(=O)N3CCc4ccccc4C3)c2C)n1 [Q-0455] | – | 16000 |
| Cc1c(C(=O)N2CC3(C2)CC(F)(F)C3)cnn1-c1nc2c(c(=O)[nH]1)CC(C)(C)C2 [Q-1565] | – | 5000 |
| Cc1cc(=O)[nH]c(-n2ncc(C(=O)N3CCc4ccc(C#N)cc4C3)c2C)n1 [Q-0286] | – | 10 |
| Cc1cc(=O)[nH]c(-c2cnn(CCC(=O)N3CCCC3)c2)n1 [Q-0283, 6-methyl-2-{1-[3-oxo-3-(pyrrolidin-1-yl)propyl]-1H-pyrazol-4-yl}-3,4-dihydropyrimidin-4-one] | – | 1500 |
| Cc1cc(-c2cnn(CCC(=O)N3CCc4ccccc4C3)c2)[nH]c(=O)n1 (single isomer, unassigned) [Q-0292, 4-methyl-6-{1-[3-oxo-3-(1,2,3,4-tetrahydroisoquinolin-2-yl)propyl]-1H-pyrazol-4-yl}-1,2-dihydropyrimidin-2-one] | – | 40000 |
| Cc1c(C(=O)N2CCN(S(=O)(=O)c3ccc(F)c(Cl)c3)CC2)cnn1-c1nn2cccc2c(=O)[nH]1 [Q-1801] | – | 2 |
| COc1ccc(OC)c(S(=O)(=O)N2CCN(C(=O)c3cnn(-c4nn5cccc5c(=O)[nH]4)c3C)CC2)c1 [Q-1839] | – | 2 |
| CCC1Cc2ccccc2N1C(=O)c1cnn(-c2nc(C)cc(=O)[nH]2)c1C (stereo not drawn) [Q-0420] | – | 7 |
| Cc1c(C(=O)N2CCc3[nH]nc(C(F)(F)F)c3C2)cnn1-c1nn2cccc2c(=O)[nH]1 [Q-2031] | – | 3 |
| Cc1c(C(=O)N2CC(c3ccncc3F)C2)cnn1-c1nn2cccc2c(=O)[nH]1 [Q-2043] | – | 5 |
| COc1ccc(S(=O)(=O)N2CCN(C(=O)c3cnn(-c4nn5cccc5c(=O)[nH]4)c3C)CC2)cc1 [Q-1804] | – | 2 |
| Cc1c(C(=O)N2CCN(S(=O)(=O)c3cc(Cl)ccc3Cl)CC2)cnn1-c1nn2cccc2c(=O)[nH]1 [Q-1825] | – | 2 |
| O=C(c1cnn(-c2cc3nccn3c(=O)[nH]2)c1)N1CCC(C(F)(F)F)CC1 [Q-0452] | – | 800 |
| Cc1c(C(=O)N2CCN(S(=O)(=O)c3ccc(Cl)c(Cl)c3)CC2)cnn1-c1nn2cccc2c(=O)[nH]1 [Q-1830] | – | 2 |
